Key:
PDE4B1 = target: T1, PDE4B1 (Homo sapiens, UniProt Q07343); assay: Inhibition of PDE4 activity (PDE4B1, SPA assay); type: biochemical; conditions: recombinant PDE4B1, 0.5 μM cAMP; read-out: PDE4B1 Inhibitory values measured as -logIC50 (converted)
T1 construct: made in house; host or cells: SF21 insect cells (baculovirus; virus made in SF9 cells, pCR-Bac vector)
Summary of the method: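 Read-out is SPA yttrium silicate bead scintillation after IBMX-containing beads stop the reaction. Insect-cell (SF21) lysate enzyme hydrolysed 0.5 μM [3H]cAMP at pH 7.4 with 5 mM Mg2+ for 15 min after a 5 min 37 °C preincubation; IC50 fitted by non-linear regression.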

human PDE5 = target: T2, human PDE5 (Homo sapiens, UniProt O76074); assay: Inhibition of PDE5 activity (platelet lysate, SPA assay); type: biochemical; conditions: 0.5 μM cGMP, read-out: PDE5 Inhibitory values measured as -logIC50 (converted)
T2 construct: from tissue; host or cells: human platelets from fresh donor blood (platelet lysate)
Summary of the method: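 SPA readout of [3H]cGMP hydrolysis (0.5 μM, 15 min, 37 °C after 5 min preincubation), stopped with yttrium silicate beads containing IBMX. Enzyme was lysate from human platelets, used at 10–20% substrate turnover, with PDE3 (motapizone 1 μM) and PDE2 (10 nM) blockers present. IC50 values fitted non-linearly from concentration-effect curves.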

T1 sequence (Q07343 whole entry): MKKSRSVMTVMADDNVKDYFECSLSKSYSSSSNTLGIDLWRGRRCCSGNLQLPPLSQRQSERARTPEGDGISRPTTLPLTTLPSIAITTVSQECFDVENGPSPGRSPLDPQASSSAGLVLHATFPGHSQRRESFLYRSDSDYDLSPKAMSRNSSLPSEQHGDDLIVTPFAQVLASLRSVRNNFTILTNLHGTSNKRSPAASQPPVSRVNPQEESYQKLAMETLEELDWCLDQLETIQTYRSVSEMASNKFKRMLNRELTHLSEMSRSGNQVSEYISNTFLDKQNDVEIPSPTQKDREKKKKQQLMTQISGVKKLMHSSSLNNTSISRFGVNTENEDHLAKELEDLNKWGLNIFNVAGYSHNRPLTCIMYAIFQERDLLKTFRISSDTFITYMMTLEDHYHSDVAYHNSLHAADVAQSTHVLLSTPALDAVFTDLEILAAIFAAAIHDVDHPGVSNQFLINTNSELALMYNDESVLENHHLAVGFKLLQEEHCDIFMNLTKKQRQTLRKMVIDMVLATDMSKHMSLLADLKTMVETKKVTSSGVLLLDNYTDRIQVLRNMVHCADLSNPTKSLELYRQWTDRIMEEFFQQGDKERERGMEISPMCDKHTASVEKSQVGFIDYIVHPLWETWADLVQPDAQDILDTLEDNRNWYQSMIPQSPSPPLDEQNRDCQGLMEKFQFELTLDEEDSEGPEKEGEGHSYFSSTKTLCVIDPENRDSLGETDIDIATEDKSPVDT

| IC50 (PDE4B1) [nM] | IC50 (human PDE5) [nM] | Compound |
| --- | --- | --- |
| < 1 | < 1 | COc1ccc(C2=NN(C3CCN(C(=O)[C@@H](Cc4ccncc4)NC(=O)c4c[nH]c5c(-c6c(OCC7CC7)ccc7c6OCO7)ncnc45)CC3)C(=O)[C@@H]3CCCC[C@H]23)cc1OC [Example 109, 4-[5-(cyclopropylmethoxy)-1,3-benzodioxol-4-yl]-N-[(2R)-1-{4-[(4aS,8aR)-4-(3,4-dimethoxyphenyl)-1-oxo-4a,5,6,7,8,8a-hexahydrophthalazin-2(1H)-yl]piperidin-1-yl}-1-oxo-3-(pyridin-4-yl)propan-2-yl]-5H-pyrrolo[3,2-d]pyrimidine-7-carboxamide] |
| 1 to 10 | 1 to 10 | COc1ccc(C2=NN(C3CCN(C(=O)[C@H](Cc4ccccc4)NC(=O)c4c[nH]c5c(-c6c(OCC7CC7)ccc7c6OCO7)ncnc45)CC3)C(=O)C(C)(C)C2)cc1OC [Example 110, 4-[5-(cyclopropylmethoxy)-1,3-benzodioxol-4-yl]-N-[(2S)-1-{4-[3-(3,4-dimethoxyphenyl)-5,5-dimethyl-6-oxo-5,6-dihydropyridazin-1(4H)-yl]piperidin-1-yl}-1-oxo-3-phenylpropan-2-yl]-5H-pyrrolo[3,2-d]pyrimidine-7-carboxamide] |
| 1 to 10 | 1 to 10 | COc1ccc(C2=NN(C3CCN(C(=O)[C@@H](C)NC(=O)c4c[nH]c5c(-c6c(OCC7CC7)ccc7c6OCO7)ncnc45)CC3)C(=O)C(C)(C)C2)cc1OC [Example 111, 4-[5-(cyclopropylmethoxy)-1,3-benzodioxol-4-yl]-N-[(2R)-1-{4-[3-(3,4-dimethoxyphenyl)-5,5-dimethyl-6-oxo-5,6-dihydropyridazin-1(4H)-yl]piperidin-1-yl}-1-oxopropan-2-yl]-5H-pyrrolo[3,2-d]pyrimidine-7-carboxamide] |
| < 1 | < 1 | COc1ccc(C2=NN(C3CCN(C(=O)[C@@H](Cc4ccc(N5CCC5=O)cc4)NC(=O)c4c[nH]c5c(-c6c(OCC7CC7)ccc7c6OCO7)ncnc45)CC3)C(=O)[C@@H]3CCCC[C@H]23)cc1OC [Example 112, 4-[5-(cyclopropylmethoxy)-1,3-benzodioxol-4-yl]-N-{(2R)-1-{4-[(4aS,8aR)-4-(3,4-dimethoxyphenyl)-1-oxo-4a,5,6,7,8,8a-hexahydrophthalazin-2(1H)-yl]piperidin-1-yl}-1-oxo-3-[4-(2-oxoazetidin-1-yl)phenyl]propan-2-yl}-5H-pyrrolo[3,2-d]pyrimidine-7-carboxamide] |
| < 1 | < 1 | COc1ccc(C2=NN(C3CCN(C(=O)[C@@H](Cc4ccc(N5CCCC5=O)cc4)NC(=O)c4c[nH]c5c(-c6c(OCC7CC7)ccc7c6OCO7)ncnc45)CC3)C(=O)[C@@H]3CCCC[C@H]23)cc1OC [Example 113, 4-[5-(cyclopropylmethoxy)-1,3-benzodioxol-4-yl]-N-{(2R)-1-{4-[(4aS,8aR)-4-(3,4-dimethoxyphenyl)-1-oxo-4a,5,6,7,8,8a-hexahydrophthalazin-2(1H)-yl]piperidin-1-yl}-1-oxo-3-[4-(2-oxopyrrolidin-1-yl)phenyl]propan-2-yl}-5H-pyrrolo[3,2-d]pyrimidine-7-carboxamide] |
| 1 to 10 | < 1 | COc1ccc(C2=NN(C3CCN(C(=O)[C@H](Cc4cccnc4)NC(=O)c4c[nH]c5c(-c6c(OCC7CC7)ccc7c6OCO7)ncnc45)CC3)C(=O)C(C)(C)C2)c2c1OC(C)(C)C2 [Example 114, 4-[5-(cyclopropylmethoxy)-1,3-benzodioxol-4-yl]-N-[(2S)-1-{4-[3-(7-methoxy-2,2-dimethyl-2,3-dihydro-1-benzofuran-4-yl)-5,5-dimethyl-6-oxo-5,6-dihydropyridazin-1(4H)-yl]piperidin-1-yl}-1-oxo-3-(pyridin-3-yl)propan-2-yl]-5H-pyrrolo[3,2-d]pyrimidine-7-carboxamide] |
| 1 to 10 | 1 to 10 | CCC1(CC)CC(c2ccc(OC)c(OC)c2)=NN(C2CCN(C(=O)[C@@H](Cc3ccccc3)NC(=O)c3c[nH]c4c(-c5c(OCC6CC6)ccc6c5OCO6)ncnc34)CC2)C1=O [Example 116, 4-[5-(cyclopropylmethoxy)-1,3-benzodioxol-4-yl]-N-[(2R)-1-{4-[3-(3,4-dimethoxyphenyl)-5,5-diethyl-6-oxo-5,6-dihydropyridazin-1(4H)-yl]piperidin-1-yl}-1-oxo-3-phenylpropan-2-yl]-5H-pyrrolo[3,2-d]pyrimidine-7-carboxamide] |
| 1 to 10 | 1 to 10 | COc1ccc(C2=NN(C3CCN(C(=O)CNC(=O)c4c[nH]c5c(-c6c(OCC7CC7)ccc7c6OCO7)ncnc45)CC3)C(=O)C(C)(C)C2)c2c1OC(C)(C)C2 [Example 117, 4-[5-(cyclopropylmethoxy)-1,3-benzodioxol-4-yl]-N-(2-{4-[3-(7-methoxy-2,2-dimethyl-2,3-dihydro-1-benzofuran-4-yl)-5,5-dimethyl-6-oxo-5,6-dihydropyridazin-1(4H)-yl]piperidin-1-yl}-2-oxoethyl)-5H-pyrrolo[3,2-d]pyrimidine-7-carboxamide] |

More lines, now with the values behind:

| Compound | IC50 (PDE4B1) [nM] | IC50 (human PDE5) [nM] |
| --- | --- | --- |
| COc1ccc(C2=NN(C3CCN(C(=O)[C@H](CCC(=O)N4CCCC4)NC(=O)c4c[nH]c5c(-c6c(OCC7CC7)ccc7c6OCO7)ncnc45)CC3)C(=O)[C@@H]3CCCC[C@H]23)cc1OC [Example 102, 4-[5-(cyclopropylmethoxy)-1,3-benzodioxol-4-yl]-N-[(2S)-1-{4-[(4aS,8aR)-4-(3,4-dimethoxyphenyl)-1-oxo-4a,5,6,7,8,8a-hexahydrophthalazin-2(1H)-yl]piperidin-1-yl}-1,5-dioxo-5-(pyrrolidin-1-yl)pentan-2-yl]-5H-pyrrolo[3,2-d]pyrimidine-7-carboxamide] | 1 to 10 | 1 to 10 |
| COc1ccc(C2=NN(C3CCN(C(=O)[C@H](CCC(=O)OCc4ccccc4)NC(=O)c4c[nH]c5c(-c6c(OCC7CC7)ccc7c6OCO7)ncnc45)CC3)C(=O)[C@@H]3CCCC[C@H]23)cc1OC [Example 104, Benzyl (4S)-4-[({4-[5-(cyclopropylmethoxy)-1,3-benzodioxol-4-yl]-5H-pyrrolo[3,2-d]pyrimidin-7-yl}carbonyl)amino]-5-{4-[(4aS,8aR)-4-(3,4-dimethoxyphenyl)-1-oxo-4a,5,6,7,8,8a-hexahydrophthalazin-2(1H)-yl]piperidin-1-yl}-5-oxopentanoate] | 1 to 10 | 1 to 10 |
| COc1ccc(C2=NN(C3CCN(C(=O)[C@@H](CCC(=O)N4CCCC4)NC(=O)c4c[nH]c5c(-c6c(OCC7CC7)ccc7c6OCO7)ncnc45)CC3)C(=O)[C@@H]3CCCC[C@H]23)cc1OC [Example 105, 4-[5-(cyclopropylmethoxy)-1,3-benzodioxol-4-yl]-N-[(2R)-1-{4-[(4aS,8aR)-4-(3,4-dimethoxyphenyl)-1-oxo-4a,5,6,7,8,8a-hexahydrophthalazin-2(1H)-yl]piperidin-1-yl}-1,5-dioxo-5-(pyrrolidin-1-yl)pentan-2-yl]-5H-pyrrolo[3,2-d]pyrimidine-7-carboxamide] | 1 to 10 | 1 to 10 |
| COc1ccc(C2=NN(C3CCN(C(=O)[C@H](CCC(=O)NC(C)C)NC(=O)c4c[nH]c5c(-c6c(OCC7CC7)ccc7c6OCO7)ncnc45)CC3)C(=O)[C@@H]3CCCC[C@H]23)cc1OC [Example 106, 4-[5-(cyclopropylmethoxy)-1,3-benzodioxol-4-yl]-N-[(2S)-1-{4-[(4aS,8aR)-4-(3,4-dimethoxyphenyl)-1-oxo-4a,5,6,7,8,8a-hexahydrophthalazin-2(1H)-yl]piperidin-1-yl}-1,5-dioxo-5-(propan-2-ylamino)pentan-2-yl]-5H-pyrrolo[3,2-d]pyrimidine-7-carboxamide] | 1 to 10 | 1 to 10 |
| COc1ccc(C2=NN(C3CCN(C(=O)[C@@H](CCC(=O)NC(C)C)NC(=O)c4c[nH]c5c(-c6c(OCC7CC7)ccc7c6OCO7)ncnc45)CC3)C(=O)[C@@H]3CCCC[C@H]23)cc1OC [Example 107, 4-[5-(cyclopropylmethoxy)-1,3-benzodioxol-4-yl]-N-[(2R)-1-{4-[(4aS,8aR)-4-(3,4-dimethoxyphenyl)-1-oxo-4a,5,6,7,8,8a-hexahydrophthalazin-2(1H)-yl]piperidin-1-yl}-1,5-dioxo-5-(propan-2-ylamino)pentan-2-yl]-5H-pyrrolo[3,2-d]pyrimidine-7-carboxamide] | 1 to 10 | 1 to 10 |
| COc1ccc(C2=NN(C3CCN(C(=O)[C@@H](Cc4ccc(F)cc4)NC(=O)c4c[nH]c5c(-c6c(OCC7CC7)ccc7c6OCO7)ncnc45)CC3)C(=O)C(C)(C)C2)cc1OC [Example 108, 4-[5-(cyclopropylmethoxy)-1,3-benzodioxol-4-yl]-N-[(2R)-1-{4-[3-(3,4-dimethoxyphenyl)-5,5-dimethyl-6-oxo-5,6-dihydropyridazin-1(4H)-yl]piperidin-1-yl}-3-(4-fluorophenyl)-1-oxopropan-2-yl]-5H-pyrrolo[3,2-d]pyrimidine-7-carboxamide] | < 1 | < 1 |
| COc1ccc(C2=NN(C3CCN(C(=O)[C@@H](Cc4ccccc4)NC(=O)c4c[nH]c5c(-c6c(OCC7CC7)ccc7c6OCO7)ncnc45)CC3)C(=O)C(C)(C)C2)c2c1OC(C)(C)C2 [Example 115] | < 1 | 1 to 10 |
